Tests used:
Renal cancer cell lines = test: NCI SRB screen, Renal panel average; settings: Homo sapiens, 48 h, read-out: Log10 GI50 (converted)
KM12 = test: NCI SRB screen, KM12; settings: Homo sapiens, KM12, 48 h, read-out: GI50 values
HL-60(TB) = test: NCI SRB screen, HL-60(TB); assay type: cell-based; settings: Homo sapiens, Leukemia, 48 h
NCI-H460 = test: NCI SRB screen, NCI-H460; settings: Homo sapiens, NCI-H460, 48 h, read-out: GI50 values
SK-MEL-5 = test: NCI SRB screen, SK-MEL-5; settings: Homo sapiens, SK-MEL-5, 48 h, read-out: GI50 values, Melanoma, SK-MEL-5
OVCAR-4 = test: NCI SRB screen, OVCAR-4; settings: Homo sapiens, OVCAR-4, 48 h, read-out: GI50 values
MDA-MB-231/ATCC = test: NCI SRB screen, MDA-MB-231/ATCC; settings: Homo sapiens, MDA-MB-231, 48 h, read-out: GI50 values
OVCAR-8 = test: NCI SRB screen, OVCAR-8; settings: Homo sapiens, OVCAR-8, 48 h, read-out: GI50 values
SF-268 = test: NCI SRB screen, SF-268; settings: Homo sapiens, SF-268, 48 h, read-out: GI50 values
SK-MEL-28 = test: NCI SRB screen, SK-MEL-28; settings: Homo sapiens, SK-MEL-28, 48 h, read-out: GI50 values
Breast Cancer cell lines = test: NCI SRB screen, Breast Cancer panel average; settings: Homo sapiens, 48 h, read-out: Log10 GI50 (converted)
MALME-3M = test: NCI SRB screen, MALME-3M; settings: Homo sapiens, 48 h, read-out: GI50 values
BT-549 = test: NCI SRB screen, BT-549; settings: Homo sapiens, BT-549, 48 h, read-out: GI50 values
NCI-H522 = test: NCI SRB screen, NCI-H522; settings: Homo sapiens, NCI-H522, 48 h, read-out: GI50 values, Non-small cell lung, NCI-H522
[1] = test system: Non-small-cell lung cancer cell lines; test: NCI SRB screen, Non-small-cell lung panel average; settings: Homo sapiens, 48 h, read-out: Log10 GI50 (converted)
ACHN = test: NCI SRB screen, ACHN; settings: Homo sapiens, 48 h, read-out: GI50 values
SNB-75 = test: NCI SRB screen, SNB-75; settings: Homo sapiens, SNB-75, 48 h, read-out: GI50 values
COLO-205 = test: NCI SRB screen, COLO-205; settings: Homo sapiens, COLO 205, 48 h, read-out: GI50 values
SF-539 = test: NCI SRB screen, SF-539; settings: Homo sapiens, 48 h, read-out: GI50 values
NCI/ADR-RES = test: NCI SRB screen, NCI/ADR-RES; settings: Homo sapiens, 48 h, read-out: GI50 values
Leukemia cell lines = test: NCI SRB screen, Leukemia panel average; settings: Homo sapiens, 48 h, read-out: Log10 GI50 (converted)
786-0 = test: NCI SRB screen, 786-0; settings: Homo sapiens, 786-0, 48 h, read-out: GI50 values
K-562 = test: NCI SRB screen, K-562; settings: Homo sapiens, K562, 48 h, read-out: GI50 values
HT29 = test: NCI SRB screen, HT29; settings: Homo sapiens, HT-29, 48 h, read-out: GI50 values
MCF7 = test: NCI SRB screen, MCF7; settings: Homo sapiens, MCF7, 48 h, read-out: GI50 values
SK-OV-3 = test: NCI SRB screen, SK-OV-3; settings: Homo sapiens, SK-OV-3, 48 h, read-out: GI50 values
OVCAR-5 = test: NCI SRB screen, OVCAR-5; settings: Homo sapiens, OVCAR-5, 48 h, read-out: GI50 values
TK-10 = test: NCI SRB screen, TK-10; settings: Homo sapiens, TK-10, 48 h, read-out: GI50 values
CCRF-CEM = test: NCI SRB screen, CCRF-CEM; settings: Homo sapiens, 48 h, read-out: GI50 values
A549/ATCC = test: NCI SRB screen, A549/ATCC; settings: Homo sapiens, A549, 48 h, read-out: GI50 values
PC-3 = test: NCI SRB screen, PC-3; settings: Homo sapiens, PC-3, 48 h, read-out: GI50 values
NCI-H226 = test: NCI SRB screen, NCI-H226; settings: Homo sapiens, NCI-H226, 48 h, read-out: GI50 values
HCT-15 = test: NCI SRB screen, HCT-15; settings: Homo sapiens, HCT-15, 48 h, read-out: GI50 values

c1ccc2[nH]c(-c3cc(-c4ccc5c(c4)OCO5)n[nH]3)nc2c1 [6g, 2-(3-(benzo[d][1,3]dioxol-5-yl)-1H-pyrazol-5-yl)-1H-benzo[d]imidazole]
GI50 (Renal cancer cell lines): 2.04 µM | GI50 (KM12): 1.75 µM | GI50 (HL-60(TB)): 2.27 µM | GI50 (NCI-H460): 4.57 µM | GI50 (SK-MEL-5): 1.53 µM | GI50 (OVCAR-4): 2.16 µM | GI50 (MDA-MB-231/ATCC): 4.12 µM | GI50 (OVCAR-8): 3.97 µM | GI50 (SF-268): 4.77 µM | GI50 (SK-MEL-28): 4.85 µM | GI50 (Breast Cancer cell lines): 3.39 µM | GI50 (MALME-3M): 2.33 µM | GI50 (BT-549): 2.12 µM | GI50 (NCI-H522): 1.98 µM | GI50 [1]: 4.57 µM | GI50 (ACHN): 4.33 µM | GI50 (SNB-75): 1.01 µM | GI50 (COLO-205): 4.78 µM | GI50 (SF-539): 2.71 µM | GI50 (NCI/ADR-RES): 4.08 µM | GI50 (Leukemia cell lines): 2.51 µM | GI50 (786-0): 4.58 µM | GI50 (K-562): 3.83 µM | GI50 (HT29): 3.66 µM | GI50 (MCF7): 3.78 µM | GI50 (SK-OV-3): 4.98 µM | GI50 (OVCAR-5): 1.49 µM | GI50 (TK-10): 1.09 µM | GI50 (CCRF-CEM): 2.52 µM | GI50 (A549/ATCC): 4.23 µM | GI50 (PC-3): 3.64 µM | GI50 (NCI-H226): 4.42 µM | GI50 (HCT-15): 3.86 µM

COc1cc(-c2cc(-c3nc4cc(Cl)c(Cl)cc4[nH]3)[nH]n2)cc(OC)c1OC [10f, 5,6-dichloro-2-(3-(3,4,5-trimethoxyphenyl)-1H-pyrazol-5-yl)-1H-benzo[d]imidazole]
GI50 (Renal cancer cell lines): 3.55 µM | GI50 (KM12): 3.56 µM | GI50 (HL-60(TB)): 3.34 µM | GI50 (NCI-H460): 3.33 µM | GI50 (SK-MEL-5): 1.56 µM | GI50 (OVCAR-4): 2.21 µM | GI50 (MDA-MB-231/ATCC): 4.14 µM | GI50 (OVCAR-8): 2.51 µM | GI50 (SF-268): 3.95 µM | GI50 (SK-MEL-28): 3.07 µM | GI50 (Breast Cancer cell lines): 3.16 µM | GI50 (MALME-3M): 2.7 µM | GI50 (BT-549): 2.84 µM | GI50 (NCI-H522): 2.02 µM | GI50 [1]: 2.95 µM | GI50 (ACHN): 3.54 µM | GI50 (SNB-75): 3.12 µM | GI50 (COLO-205): 3.77 µM | GI50 (SF-539): 3.28 µM | GI50 (NCI/ADR-RES): 3.25 µM | GI50 (Leukemia cell lines): 2.75 µM | GI50 (786-0): 4.09 µM | GI50 (K-562): 3.3 µM | GI50 (HT29): 3.42 µM | GI50 (MCF7): 2.79 µM | GI50 (SK-OV-3): 1.73 µM | GI50 (OVCAR-5): 7.08 µM | GI50 (TK-10): 4.61 µM | GI50 (CCRF-CEM): 2.35 µM | GI50 (A549/ATCC): 2.87 µM | GI50 (PC-3): 2.2 µM | GI50 (NCI-H226): 2.29 µM | GI50 (HCT-15): 2.89 µM

— US9951049B2, “Pyrazole linked benzimidazole conjugates and a process for preparation thereof” (Council of Scientific & Industrial Reseach, priority 2014, dated 2018)
